Measurements published in the supplement of paper PMC10307832.

Columns and labels:
Experiment in all cases: relative viability (nuclei count vs DMSO), 5 days (fraction); higher = more cells survive
[1] = compound: C=CC(=O)N1CCC[C@@H](n2nc(-c3ccc(Oc4ccccc4)cc3)c3c(N)ncnc32)C1 [Ibrutinib] + Nc1ncn([C@H]2C[C@H](O)[C@@H](CO)O2)c(=O)n1 [Decitabine] (partner 2 µM)
Outline: (§1)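 The day after seeding in 1536-well plates, lung cancer cell lines were treated by pin tool with a single drug, or with a fixed anchor-drug dose together with five library-drug doses (not always all listed) in √10 steps. After 5 days, a combined fix-and-stain solution (final 0.05% Triton X-100, 1% formaldehyde, 1 ug/ml Hoechst) was added. Nuclei counted on 4× images gave relative viability as treated counts over vehicle counts, reported as the median of duplicate plates.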

[2] = compound: C=CCc1cccc(/C=N/NC(=O)CN2CCN(Cc3ccccc3)CC2)c1O [PAC-1] + CS(=O)(=O)CCNCc1ccc(-c2ccc3ncnc(Nc4ccc(OCc5cccc(F)c5)c(Cl)c4)c3c2)o1 [Lapatinib] (partner 2 µM)
Outline: as §1

[3] = compound: C=CC(=O)N1CCC[C@@H](n2nc(-c3ccc(Oc4ccccc4)cc3)c3c(N)ncnc32)C1 [Ibrutinib] + N=C(N)NC(=N)NCCc1ccccc1 [Phenformin] (partner 250 µM)
Outline: as §1

[4] = compound: C=CC(=O)Nc1cc(-n2c(=O)ccc3cnc4ccc(-c5ccc(NS(C)(=O)=O)cc5)cc4c32)ccc1C [BMX-IN-1] + Cc1nc(NC(=O)N2CCC[C@H]2C(N)=O)sc1-c1ccnc(C(C)(C)C(F)(F)F)c1 [Alpelisib] (partner 2 µM)
Outline: as §1

Cell Line | relative viability ([1]; first compound 0.005 µM) | relative viability ([1]; first compound 0.01581 µM) | relative viability ([1]; first compound 0.05 µM) | relative viability ([1]; first compound 0.5 µM) | relative viability ([2]; first compound 0.02 µM) | relative viability ([2]; first compound 0.06325 µM) | relative viability ([2]; first compound 0.2 µM) | relative viability ([2]; first compound 2 µM) | relative viability ([3]; first compound 0.005 µM) | relative viability ([3]; first compound 0.01581 µM) | relative viability ([3]; first compound 0.05 µM) | relative viability ([3]; first compound 0.1581 µM) | relative viability ([3]; first compound 0.5 µM) | relative viability ([4]; first compound 0.02 µM) | relative viability ([4]; first compound 0.2 µM) | relative viability ([4]; first compound 0.6325 µM) | relative viability ([4]; first compound 2 µM) | relative viability ([1]; first compound 0.1581 µM)
A-427 | 0.59 | 0.574 | 0.576 | 0.549 | 1.06 | 1.03 | 1.08 | 0.71 | 0.307 | 0.351 | 0.316 | 0.27 | 0.3 | 1.04 | 1.11 | 1.04 | 1.14 | 
HCC-44 | 1 | 0.96 | 1 | 0.988 | 1.06 | 1.04 | 0.962 | 1.03 | 0.138 | 0.182 | 0.148 | 0.11 | 0.232 | 0.869 | 0.905 | 1.01 | 0.794 | 0.976
HCC-827 | 0.275 | 0.345 | 0.262 | 0.195 | 0.193 | 0.194 | 0.186 | 0.198 | 0.408 | 0.358 | 0.304 | 0.431 | 0.181 | 0.95 | 0.889 | 1.05 | 0.946 | 0.287
NCI-H1915 | 0.269 | 0.272 | 0.275 | 0.255 | 0.971 | 0.995 | 0.917 | 0.92 | 0.401 | 0.351 | 0.367 | 0.421 | 0.373 | 1.08 | 1.03 | 1.04 | 1.13 | 0.272
NCI-H322M | 0.662 | 0.637 | 0.664 | 0.505 | 0.526 | 0.581 | 0.668 | 0.576 | 0.715 | 0.675 | 0.675 | 0.676 | 0.569 | 0.882 | 0.825 | 0.757 | 0.772 | 0.634
EKVX | 0.281 | 0.247 | 0.421 | 0.226 | 0.203 | 0.18 | 0.208 | 0.176 | 0.224 | 0.245 | 0.226 | 0.227 | 0.13 | 0.942 | 0.965 | 0.951 | 0.828 | 0.315
EMC-BAC-2 | 0.91 | 0.962 |  | 0.994 | 0.841 | 0.865 | 0.899 | 0.974 | 0.465 | 0.509 | 0.53 | 0.571 | 0.507 | 0.891 | 0.873 | 0.783 | 0.625 | 
HCC-15 | 0.711 | 0.57 | 0.661 | 0.662 | 0.907 | 0.945 | 0.814 | 0.861 | 0.571 | 0.477 | 0.524 | 0.408 | 0.53 | 1.08 | 1.02 | 0.924 | 0.882 | 0.581
LXF-289 | 0.357 | 0.295 | 0.381 | 0.342 | 0.901 | 0.903 | 0.897 | 0.927 | 0.537 | 0.472 | 0.515 | 0.465 | 0.497 | 1.12 | 1.14 | 1.11 | 1.07 | 0.38
NCI-H358 | 0.176 | 0.204 |  | 0.136 | 0.473 | 0.525 | 0.477 | 0.388 | 0.23 |  | 0.178 | 0.202 | 0.174 | 0.861 | 0.881 | 0.937 | 0.81 | 0.232
NCI-H1395 | 0.777 | 0.688 | 0.811 | 0.75 | 1.12 | 1 | 0.881 | 1.01 | 0.281 | 0.404 | 0.468 | 0.442 | 0.405 | 1.07 | 1.05 | 1.15 | 0.962 | 0.697
NCI-H838 | 0.552 | 0.466 | 0.497 | 0.451 | 0.931 | 0.968 | 0.83 | 1.01 | 0.492 | 0.491 | 0.581 | 0.519 | 0.537 | 1.18 | 0.961 | 1.06 | 1.04 | 0.476
NCI-H520 | 0.447 | 0.512 | 0.497 | 0.498 | 0.733 | 0.976 | 0.637 | 0.779 | 0.431 | 0.606 | 0.583 | 0.634 | 0.356 | 1.26 | 0.922 | 0.873 | 0.753 | 0.606
SW 1573 | 0.364 | 0.459 | 0.482 | 0.683 | 1.05 | 1.16 | 1 | 1.09 | 0.317 | 0.345 | 0.477 | 0.406 | 0.423 | 0.913 | 0.882 | 0.8 | 0.798 | 0.412
201T | 0.827 | 0.842 | 0.881 | 0.799 | 0.98 | 1.01 | 1.1 | 1.05 | 0.449 | 0.443 | 0.442 | 0.429 | 0.412 | 1.02 | 1.02 | 0.987 | 1.02 | 0.83
NCI-H1437 | 0.59 | 0.559 | 0.507 | 0.53 | 0.758 | 0.828 | 0.751 | 0.679 | 0.352 | 0.3 | 0.318 | 0.317 | 0.314 | 1.26 | 0.953 | 1.1 | 1.05 | 0.609
NCI-H1975 | 0.414 | 0.354 | 0.379 | 0.177 | 0.866 | 0.871 | 0.939 | 0.97 | 0.452 | 0.372 | 0.379 | 0.416 | 0.215 | 0.714 | 0.686 | 0.664 | 0.592 | 0.373
RERF-LC-KJ | 0.599 | 0.654 | 0.561 | 0.728 | 0.857 | 0.817 | 0.864 | 0.87 | 0.394 | 0.389 | 0.379 | 0.407 | 0.356 | 0.787 | 0.868 | 0.856 | 0.899 | 0.693
